{
  "source": "patent US20090286839A1",
  "about": "“PHYTONUTRIENT COMPOSITIONS FROM MUSHROOMS OR FILAMENTOUS FUNGI AND METHODS OF USE” (priority 2006, published 2009)",
  "key": {"[1]": {"assay": "Super-oxide radical averting capacity (SORAC) assay", "assay_type": "biochemical", "conditions": "pure ERG", "text": "SORAC assays were based on the previously described method by Zhao and coworkers. Simply, hydroethidine was used as a probe in measuring O2^− scavenging capacity. […] Addition of SOD inhibits the hydroethidine oxidation. All data was expressed as superoxide equivalents per gram of dry weight (kunitSOD eq/g dw). The freeze-dried forms of the mushrooms were used for testing and the data was reported as dry weight. When reporting amount per serving, the data was converted to a fresh weight basis according to the dry weight of the fresh mushroom samples. For each analysis, triplicate extractions from one crop were performed and used for analysis.\nAnother biological relevant free radical is O2^− which is less reactive than HO., however O2^− does react very quickly with certain radicals, such as nitric oxide. The SORAC assay is a newly developed assay. Hydroethidine (nonfluorescent) is used as the probe, which is oxidized (fluoresces) in the presence of O2^− that is generated from a xanthine and xanthine oxidase mixture. If antioxidants present in the sample are able to scavenge O2^−, a delay in fluorescence will occur due to the protection of the probe offered by the antioxidant. Generally, compounds that can scavenge O2^− will provide high SORAC values. […]"}, "[2]": {"assay": "Hydrophilic ORACFL assay (ORAChydro)", "assay_type": "biochemical", "conditions": "pure ERG", "text": "The lipophilic ORACFL assay (ORAClipo) was based on a previous reported method. Hydrophilic ORACFL assay (ORAChydro) was based on a previous reported method. All data was expressed as micromoles of Trolox equivalents (TE) per gram of dry weight (μmol TE/g dw). The freeze-dried forms of the mushrooms were used for testing and the data was reported as dry weight. When reporting amount per serving, the data was converted to a fresh weight basis according to the dry weight of the fresh mushroom samples. For each analysis, triplicate extractions were performed from one crop and used for analysis. ORACtotal was determined by calculating the sum of ORAClipo and ORAChydro results."}},
  "data": [
    {"compound": "C[N+](C)(C)[C@@H](Cc1c[nH]c(=S)[nH]1)C(=O)[O-]", "note": "[Ergo, L-ergothioneine]", "values": [
      {"measurement": "SORAC value of ERG", "setting": "[1]", "result": "non-detectable"},
      {"measurement": "ORAChydro value of ERG", "setting": "[2]", "result": "6,440 μmole TE/g"}
    ]}
  ]
}
